Source: patent US5654008A, “Preparation of biodegradable microparticles containing a biologically active agent” (Alkermes Controlled Therapeutics Inc. II, priority 1996, dated 1997)

C#C[C@]1(O)CC[C@H]2[C@@H]3CCC4=CC(=O)CC[C@@H]4[C@H]3CC[C@@]21C [NET, norethindrone]
NET release rate, effect of quench volume (0.25 to 1.5 L quench liquid per gram, possible minimum at 1 L): varies slightly with a possible minimum | in vitro release, effect of ethyl acetate content of quench liquid (at extreme ethyl acetate contents): quicker release
